Measured values reported in patent US5132323A, “1,2-diaminocyclohexane-platinum complexes with antitumor activity” (Board of Regents, The University of Texas System, priority 1990, dated 1992).

Key:
B16 melanoma = assay: In vivo antitumor efficacy, B16 melanoma; parameters: species or system BDF1 mice; conditions: for % T/C (mean survival time treated/control x 100): mice inoculated with B16 cells (Table 6); for % T/C: days 1, 5, 9
Method: (§1) BDF1 mice were inoculated intraperitoneally with 10^5 L121O cells, 0.5 ml of 10% tumor brei or 10^6 M5076 cells using 5 animals in each group. Drug was administered […] on days 1, 5 and 9, except that the group infected with M5076 cells was also injected on day 13. % T/C represents mean survival time treated/mean survival time of the control times 100.
(§2) ^d % T/C = (Mean Survival Time treated/Mean Survival Time control)
(§3) ^e LTS animals alive 60 days after inoculation of L1210/0 and B16 and […]

[1] = tested on: wild-type L1210 leukemic cells; assay: In vitro cytotoxicity, growth inhibition of wild-type L1210 leukemic cells; assay type: cell-based, murine; conditions: 72 hours incubation
Method: Wild-type L1210 leukemic cells were grown as a suspension culture in McCoy's 5A medium supplemented with 10% horse serum, glutamine, streptomycin and penicillin at 37° C., 95% relative humidity and 5% CO2. Four ml of cell suspension (10^5 cells/ml) were added to culture tubes and the appropriate amount of drug was added (to yield 0.01, 0.1, 1 or 10 μg/ml final concentration) to the culture tubes. After 72 hours of incubation, the cell concentration in control and experimental cultures were determined with the aid of the Coulter counter model ZBf and the percent of growth inhibition calculated.

[2] = LD50 of DACH-Pt(II) compounds, intraperitoneal; assay type: in vivo; conditions: i.p., CD1 albino mice
M5076 = assay: In vivo antitumor efficacy, M5076; parameters: species or system BDF1 mice; conditions: for long term survivor: M5076 inoculation (Table 6); for % T/C (treated/control mean survival time): mice inoculated with M5076 cells (Table 6); for % T/C: days 1, 5, 9, 13; for LTS: alive 90 days after inoculation
Method: as §1
^c BDF1 mice were inoculated i.p. with 10^6 M5076 cells. Mic
received 4 i.p. drug injections on days 1, 5, 9 and 13.
as §2
^e LTS animals alive 60 days after inoculation of L1210/0 and B16 and
90 days after inoculation B5076.

L1210/cisplatin = assay: In vivo antitumor efficacy, L1210/cisplatin; parameters: species or system BDF1 mice; conditions: for % T/C (mean survival time treated/control × 100): mice inoculated with L1210 cells (Table 6); for % T/C: days 1, 5, 9
Method: as §1
^a BDF1 mice were inoculated i.p. with 10^5 L1210 cells. Mic
received 3 i.p. drug injections days 1, 5, and 9.
as §2, §3

[3] = In vivo renal and hematological toxicity of DACH-Pt(II) compounds; parameters: species or system CD1 albino mice; WBC d.5: unit not given here; conditions: single i.p. LD50 dose; for Body Weight d.5 (% of day 0) / WBC d.5: day 5; for WBC d.5: mean ± S.D.
Method: CD1 albino mice were administered a single intraperitoneal injection of the LD50 dose of each compound using 5 mice in each group. Five days later each mouse was bled under anesthesia from the axillary vessel. Blood urea nitrogen (BUN) and leucopenia were assessed for each sample.
^a CD1 Albino mice were administered a single i.p. injection of
the LD50 dose of each compound (5 mice/cmpd) and bled under
anesthesia from the axillary vessel 5 days later for blood urea nitrogen
(BUN) measurement and assessment of leucopenia. Results as presented as […]

L1210 = assay: In vivo antitumor therapy against L1210; parameters: species or system BDF1 mice; conditions: for Long-term Survivors: alive 30 days after tumor inoculation
[4] = optimal dose 12.5 mg/kg i.p., days 1-9
[5] = optimal dose 12.5 mg/kg i.p., days 1,5,9
[6] = optimal dose 50 mg/kg i.p., day 1
[7] = optimal dose 25 mg/kg i.p., days 1,5,9
[8] = optimal dose 6.25 mg/kg i.p., days 1,5,9

1,1-Cyclobutanedicarboxylato(cis-DACH)Pt(II).11/2H2 O [Compound 13]
long term survivor (B16 melanoma; B16 inoculation (Table 6)): 1/5 | % T/C (mean survival time treated/control x 100) (B16 melanoma): 200% | % T/C (B16 melanoma; opt. dose 100 mg/kg i.p.): 200% | LTS (B16 melanoma; opt. dose 100 mg/kg i.p., alive 60 days after inoculation): 1/5 | ID50 [1]: 3.30 µg/mL | LD50 [2]: 215 mg/kg | long term survivor (M5076): 5/5 | % T/C (treated/control mean survival time) (M5076): 400% | % T/C (M5076; opt. dose 100 mg/kg i.p.): 400% | LTS (M5076; opt. dose 100 mg/kg i.p.): 5/5 | % T/C (mean survival time treated/control × 100) (L1210/cisplatin): 150% | % T/C (L1210/cisplatin; opt. dose 150 mg/kg i.p.): 150% | Survivors on d.5 [3]: 5/5 | Body Weight d.5 (% of day 0) [3]: 82 % of day 0 | WBC d.5 [3]: 1.13 ± 0.28 | Long-term Survivors (L1210; 12.5 mg/kg i.p., days 1-9): 1/6 | % T/C (L1210; [4]): 253%

1,1-Cyclobutanedicarboxylato(trans-R,R-DACH)Pt(II).1 1/2H2 O [Compound 11]
% T/C (mean survival time treated/control x 100) (B16 melanoma): 104% | % T/C (B16 melanoma; opt. dose 50 mg/kg i.p.): 104% | LD50 [2]: 280 mg/kg | long term survivor (M5076): one | % T/C (treated/control mean survival time) (M5076): 220% | % T/C (M5076; opt. dose 50 mg/kg i.p.): 220% | LTS (M5076; opt. dose 50 mg/kg i.p.): 1/5 | % T/C (mean survival time treated/control × 100) (L1210/cisplatin): 118% | % T/C (L1210/cisplatin; opt. dose 150 mg/kg i.p.): 118% | Survivors on d.5 [3]: 5/5 | Body Weight d.5 (% of day 0) [3]: 121 % of day 0 | WBC d.5 [3]: 3.44 ± 1.55 | Long-term Survivors (L1210; 6.25 mg/kg i.p., days 1-9): 3/6 | % T/C (L1210; optimal dose 6.25 mg/kg i.p., days 1-9): 398% | % T/C (L1210; [5]): 140% | % T/C (L1210; [6]): 147%

CCN(CC(=O)[O-])CC(=O)[O-].N[C@@H]1CCCC[C@H]1N.O.[Pt+2] (stereo in doubt) [Compound 1, N-ethyliminodiacetato(trans-R,R-DACH)Pt(II).H2 O]
ID50 [1]: 0.73 µg/mL | LD50 [2]: 58 mg/kg | % T/C (mean survival time treated/control × 100) (L1210/cisplatin): 324% | % T/C (L1210/cisplatin; opt. dose 12.5 mg/kg i.p.): 324% | Survivors on d.5 [3]: 5/5 | Body Weight d.5 (% of day 0) [3]: 105 % of day 0 | WBC d.5 [3]: 2.3 ± 0.93 | Long-term Survivors (L1210; 3.15 mg/kg i.p., days 1-9): 4/6 | Long-term Survivors (L1210; 12.5 mg/kg i.p., days 1,5,9): 1/6 | % T/C (L1210; optimal dose 3.15 mg/kg i.p., days 1-9): 434% | % T/C (L1210; [5]): 324% | % T/C (L1210; [6]): 125%

N[C@@H]1CCCC[C@H]1N.O.O.O=C([O-])CN(O)CC(=O)[O-].[Pt+2] (stereo in doubt) [Compound 9, N-hydroxyliminodiacetato(trans-R,R-DACH)Pt(II).2H2 O]
ID50 [1]: 0.76 µg/mL | % T/C (L1210; [7]): 265% | % T/C (L1210; [6]): 156%

N[C@H]1CCCC[C@@H]1N.O.O.O=C([O-])C1(C(=O)[O-])CCC1.[Pt+2] (stereo in doubt) [Compound 12, 1,1-Cyclobutanedicarboxylato(trans-S,S-DACH)Pt(II).2H2 O]
% T/C (mean survival time treated/control x 100) (B16 melanoma): 104% | % T/C (B16 melanoma; opt. dose 50 mg/kg i.p.): 104% | ID50 [1]: 1.65 µg/mL | LD50 [2]: 230 mg/kg | % T/C (treated/control mean survival time) (M5076): 231% | % T/C (M5076; opt. dose 50 mg/kg i.p.): 231% | LTS (M5076; opt. dose 50 mg/kg i.p.): 1/5 | % T/C (mean survival time treated/control × 100) (L1210/cisplatin): 176% | % T/C (L1210/cisplatin; opt. dose 100 mg/kg i.p.): 176% | Survivors on d.5 [3]: 3/5 | Body Weight d.5 (% of day 0) [3]: 114 % of day 0 | WBC d.5 [3]: 3.42 ± 1.93 | % T/C (L1210; [4]): 120%

N[C@@H]1CCCC[C@H]1N.O.O=C([O-])C1(C(=O)[O-])CC1.[Pt+2] (stereo in doubt) [Compound 14, 1,l-Cyclopropanedicarboxylato(trans-R,R-DACH)Pt(II).H2 O]
ID50 [1]: 0.66 µg/mL

CN(C)CC(=O)[O-].CN(C)CC(=O)[O-].N[C@@H]1CCCC[C@H]1N.O.O.[Pt+2] (stereo in doubt) [Compound 16, Cis-bis-N,N-dimethylglycinato(trans-R,R-DACH)Pt(II).2H2 O]
ID50 [1]: 3.5 µg/mL

N.N.O=C([O-])C1(C(=O)[O-])CCC1.[Pt+2] [Carboplatin, reference compound]
LD50 [2]: 105 mg/kg | % T/C (M5076; opt. dose 40 mg/kg i.p.): 150% | % T/C (L1210/cisplatin; opt. dose 90 mg/kg i.p.): 121% | Survivors on d.5 [3]: 5/5 | Body Weight d.5 (% of day 0) [3]: 95 % of day 0

CCN1CC(=O)[O][Pt]2([NH]C3CCCCC3[NH]2)[O]C(=O)C1 (stereo not drawn) [Cis-EIDA]
LD50 [2]: 140 mg/kg | % T/C (L1210/cisplatin; opt. dose 75 mg/kg i.p.): 262% | Survivors on d.5 [3]: 3/5 | Body Weight d.5 (% of day 0) [3]: 77 % of day 0 | WBC d.5 [3]: 3.25 ± 1.01

N.N.[Cl][Pt][Cl] [Cisplatin, reference compound]
% T/C (B16 melanoma; opt. dose 3 mg/kg i.p.): 139% | % T/C (M5076; opt. dose 3 mg/kg i.p.): 200% | % T/C (L1210/cisplatin; opt. dose 5 mg/kg i.p.): 94%

CCCN(CC(=O)[O-])CC(=O)[O-].N[C@@H]1CCCC[C@H]1N.O.O.[Pt+2] [Compound 2, N-propyliminodiacetato(trans-R,R-DACH)Pt(II).2H2 O]
ID50 [1]: 0.75 µg/mL | % T/C (L1210; optimal dose 56 mg/kg i.p., day 1): 129%

CCCCN(CC(=O)[O-])CC(=O)[O-].N[C@@H]1CCCC[C@H]1N.O.O.[Pt+2] [Compound 3, N-butyliminodiacetato(trans-R,R-DACH)Pt(II).2H2 O]
ID50 [1]: 0.74 µg/mL | Long-term Survivors (L1210; 12.5 mg/kg i.p., days 1,5,9): 2/6 | % T/C (L1210; optimal dose 12.5 mg/kg i.p., day 1): 147% | % T/C (L1210; [5]): 318%

CCCCCN(CC(=O)[O-])CC(=O)[O-].N[C@@H]1CCCC[C@H]1N.O.[Pt+2] [Compound 4, N-amyliminodiacetato(trans-R,R-DACH)Pt(II).H2 O]
ID50 [1]: 3.00 µg/mL | Long-term Survivors (L1210; 25 mg/kg i.p., days 1,5,9): 2/6 | % T/C (L1210; [7]): 227% | % T/C (L1210; [6]): 158%

CC(C)CCN(CC(=O)[O-])CC(=O)[O-].N[C@@H]1CCCC[C@H]1N.[Pt+2] [Compound 6, N-isoamyliminodiacetato(trans-R,R-DACH)Pt(II)]
% T/C (L1210; [5]): 150% | % T/C (L1210; [6]): 145%

CCC(C)N(CC(=O)[O-])CC(=O)[O-].N[C@@H]1CCCC[C@H]1N.O.O.[Pt+2] (stereo not drawn) [Compound 7, N-sec-butyliminodiacetato(trans-R,R-DACH)Pt(II).2H2 O]
ID50 [1]: 0.65 µg/mL | Long-term Survivors (L1210; 6.25 mg/kg i.p., days 1,5,9): 2/6 | % T/C (L1210; [8]): 282%

CC(C)(C)N(CC(=O)[O-])CC(=O)[O-].N[C@@H]1CCCC[C@H]1N.O.O.O.[Pt+2] [Compound 8, N-ter-butyliminodiacetato(trans-R,R-DACH)Pt(II).3H2 O]
Long-term Survivors (L1210; 6.25 mg/kg i.p., days 1,5,9): 1/6 | % T/C (L1210; [8]): 271%

CC(=CC(=O)[O-])C(=O)[O-].NC1CCCCC1N.O.[Pt+2] [Compound 10, Citraconato(trans-R,R-DACH)Pt(II).1H2 O]
ID50 [1]: 5.00 µg/mL | % T/C (L1210; [7]): 200%

CCN1CC(=O)[O][Pt]2([NH]C3CCCCC3[NH]2)[O]C(=O)C1 (stereo not shown) [S,S-EIDA]
LD50 [2]: 95 mg/kg | % T/C (L1210/cisplatin; opt. dose 25 mg/kg i.p.): 344% | Survivors on d.5 [3]: 5/5 | Body Weight d.5 (% of day 0) [3]: 100 % of day 0 | WBC d.5 [3]: 2.63 ± 0.96

Cis-bis-galacturonato(trans-R,R-DACH)Pt(II).2H2 O [Compound 15]
ID50 [1]: 0.90 µg/mL | % T/C (L1210; [5]): 238%

N-isopropyliminodiacetato(trans-R,R-DACH)Pt(II).2H2 O [Compound 5]
ID50 [1]: 0.85 µg/mL | Long-term Survivors (L1210; 12.5 mg/kg i.p., days 1,5,9): 1/6 | % T/C (L1210; [5]): 324% | % T/C (L1210; [6]): 155%
